From US20060122181A1, “Heteroaromatic pentacyclic compound and medicinal use thereof” (Japan Tobacco Inc., priority 2003, published 2006) come the findings set out here.

`CCCC(CCC)c1ccc(N(Cc2ccc(-c3csc(COc4cc(C(=O)O)ccc4NC(=O)C(C)C)n3)cc2)C(C)C)cc1` [Example 1-113] showed a melting point of 166 to 168 °C.
Next, `CCCC(CCC)c1ccc(N(Cc2ccc(-c3csc(CN(CC(=O)O)S(=O)(=O)N(C)c4ccccc4)n3)cc2)C(C)C)cc1` [Example 1-116]: 146 to 148 °C; `CCC(CC)c1ccc(N(Cc2ccc(-c3csc(CN(C)c4ccc(OCC(=O)O)c(C(=O)O)c4)n3)cc2)C(C)C)cc1` [Example 1-124]: 124 °C.
The compound `CCCC(CCC)c1ccc(OCc2ccc(-c3csc(CN(C)c4ccc(OCC(=O)O)c(C(=O)O)c4)n3)cc2)cc1` [Example 1-125] displayed a melting point of 122 °C.
`CCCC(CCC)c1ccc(N(Cc2ccc(-c3csc(COc4cc(C(=O)O)ccc4NC(=O)CNC)n3)cc2)C(C)C)cc1` [Example 1-126] gave a melting point of 210 to 212 °C.
`CCCC(CCC)c1ccc(OCc2ccc(-c3csc(CN(CC(=O)O)C(=O)COc4ccccc4)n3)cc2)cc1` [Example 1-129] gave a melting point of 143 to 145 °C.
On to `CCCC(CCC)c1ccc(OCc2ccc(-c3csc(CN(CC(=O)O)C(=O)COc4ccc(C)cc4)n3)cc2)cc1` [Example 1-130], for which the melting point fell in the range of 170 to 172 °C.
As to `CCCC(CCC)c1ccc(N(Cc2ccc(-c3csc(CN(CC(=O)O)C(=O)COCc4ccccc4)n3)cc2)C(C)C)cc1` [Example 1-134], the melting point lay within 158 to 160 °C.
On to `CCCC(CCC)c1ccc(OCc2ccc(-c3csc(CN(CC(=O)O)C(=O)COc4ccc(C(C)C)cc4)n3)cc2)cc1` [Example 1-135], for which the melting point was in the range of 192 to 194 °C.
`CCCC(CCC)c1ccc(N(Cc2ccc3nc(-c4csc(CN(CC(=O)O)Cc5nc(C(C)(C)C)cs5)n4)oc3c2)C(C)C)cc1` [Example 1-138]: the melting point was in the range of 98 to 100 °C.
Next, `CCCC(CCC)c1ccc(N(Cc2ccc3nc(-c4csc(CN(CC(=O)O)Cc5nc6ccccc6[nH]5)n4)oc3c2)C(C)C)cc1` [Example 1-139]: 127 to 133 °C; `CCCC(CCC)c1ccc(N(Cc2ccc3nc(-c4csc(COc5cncc(C(=O)O)c5)n4)oc3c2)C(C)C)cc1` [Example 1-140]: 135 to 138 °C; `CCCC(CCC)c1ccc(OCc2ccc(-c3csc(CN(C)c4cccc(C(=O)O)n4)n3)cc2)cc1` [Example 1-143]: 123 to 125 °C.
Regarding `CCCC(CCC)c1ccc(N(Cc2ccc(-c3csc(CN(CC(=O)O)Cc4nc(C)c(C)s4)n3)cc2)C(C)C)cc1` [Example 1-146], the melting point fell in the range of 156 to 157 °C.
As to `CCCC(CC)c1ccc(N(Cc2ccc(-c3csc(CN4CCC(C(=O)O)CC4)n3)cc2)C(C)C)cc1` (stereo not shown) [Example 1-152], the melting point was 149 to 151 °C.
As for `CCC(CC)c1ccc(N(Cc2ccc(-c3csc(CN4CCN(c5ccc(C(=O)O)cc5)CC4)n3)cc2)C(C)C)cc1` [Example 1-154], the melting point lay within 232 to 234 °C.
For `CCCC(CCC)c1ccc2c(c1)nc(-c1csc(COc3ccc(C(=O)O)cc3)n1)n2Cc1cccc(C)n1` [Example 1-159], the melting point is 113 to 116 °C.
In turn, `CCCC(CCC)c1ccc(OCc2ccc(-c3csc(CNC(=O)c4ccc(C(=O)O)cn4)n3)cc2)cc1` [Example 1-163] displayed a melting point of 164 to 166 °C.
`CCCC(CCC)c1ccc(COc2ccc(-c3csc(CN4CCC(c5ccccc5C(=O)O)CC4)n3)cc2)cc1` [Example 1-164] yielded a melting point of 170 to 172 °C.
In turn, `CCCC(CCC)c1ccc(Cn2cc(-c3csc(CN4CCC(C(=O)O)CC4)n3)c3ccccc32)cc1` [Example 1-165] showed a melting point of 111 to 115 °C.
`CCCC(CCC)c1ccc(Cn2c(-c3csc(CN4CCc5ccc(C(=O)O)cc5C4)n3)nc3ccccc32)cc1` [Example 1-169]: the melting point lay within 189.2 to 190.3 °C.
On to `CCCC(CCC)c1ccc(Cn2c(-c3csc(CN4CCN(c5cccc(C(=O)O)c5)CC4)n3)nc3ccccc32)cc1` [Example 1-170], for which the melting point lay in the range of 179.8 to 181.2 °C.
The figure for `CCCC(CCC)c1ccc(Cn2c(-c3csc(CN4CCC(c5ccc(C(=O)O)cc5)CC4)n3)nc3ccccc32)cc1` [Example 1-171] is 208.5 to 209.8 °C; for `O=C(O)c1cccc(C2CCN(Cc3nc(-c4ccc(OCc5ccc(Cl)c(Cl)c5)cc4)cs3)CC2)c1` [Example 1-173] it is 197 to 199 °C; for `O=C(O)c1cccc(C2CCN(Cc3nc(-c4ccc(OCc5cc(C(F)(F)F)cc(C(F)(F)F)c5)cc4)cs3)CC2)c1` [Example 1-174] it is 222 to 228 °C.
For the compound `CCCCOc1ccc(COc2ccc(-c3csc(CN4CCC(c5cccc(C(=O)O)c5)CC4)n3)cc2)cc1` [Example 1-175], the melting point was in the range of 222 to 225 °C.
As to `CCCC(CCC)c1ccc(OCc2ccc(-c3csc(Cn4nc(C)cc4C(=O)O)n3)cc2)cc1` [Example 1-176], the melting point lay in the range of 141 to 143 °C.
Compound `CCCC(CCC)c1ccc(OCc2ccc(-c3csc(Cn4nc(C(=O)O)cc4C)n3)cc2)cc1` [Example 1-177] registered a melting point of 185 to 194 °C.
`CCCC(CCC)c1ccc(OCc2ccc(-c3csc(Cn4nc(C(C)(C)C)cc4C(=O)O)n3)cc2)cc1` [Example 1-179] gave a melting point of 123 to 125 °C.
`CCCC(CCC)c1ccc(Cn2cc(-c3csc(CN4C[C@H](O)C[C@H]4C(=O)O)n3)c3ccccc32)cc1` [Example 1-180] gave a melting point of 105 to 107 °C.
In turn, `CCCC(CCC)c1ccc(Cn2c(-c3ccccc3)c(-c3csc(CN4CCC(C(=O)O)CC4)n3)c3ccccc32)cc1` [Example 1-183] registered a melting point of 101 to 103 °C.
`Cc1ccc(COc2ccc(-c3csc(CN4CCC(c5cccc(C(=O)O)c5)CC4)n3)cc2)cc1[N+](=O)[O-]` [Example 1-184] registered a melting point of 205 to 210 °C.
Turning to `CC(C)c1ccc(Cn2c(-c3csc(CN4CCc5ccc(C(=O)O)cc5C4)n3)nc3ccc(N4CCOCC4)cc32)cc1` [Example 1-185], the melting point fell in the range of 141 to 143.2 °C.
Regarding `CC(C)c1ccc(Cn2c(-c3csc(CN4CCN(c5cccc(C(=O)O)c5)CC4)n3)nc3ccc(N4CCOCC4)cc32)cc1` [Example 1-186], the melting point was in the range of 128.5 to 131.5 °C.
With `CCCC(CCC)c1ccc(COc2ccc(-c3csc(COc4ccc(C(=O)O)cc4)n3)cc2)cc1` [Example 3-2], the melting point fell in the range of 204 to 207 °C.
Take `CCCC(CCC)c1ccc(COc2ccc(-c3csc(CSc4ccc(C(=O)O)cc4)n3)cc2)cc1` [Example 3-3]: the melting point fell in the range of 117 to 118 °C.
In the case of `CCCC(CCC)c1ccc(COc2ccc(C)cc2-c2csc(CN(C)S(=O)(=O)c3ccc(C(=O)O)cc3)n2)cc1` [Example 3-6], the melting point lay in the range of 130 to 132 °C.
`CCCC(CCC)c1ccc(COc2ccc(C)cc2-c2csc(CN(C)c3ccc(C(=O)O)cc3)n2)cc1` [Example 3-7]: the melting point was in the range of 184 to 187 °C.
The compound `Cc1ccc(OCc2ccc(C(F)(F)F)cc2)c(-c2csc(CN(CC(=O)O)Cc3ccccc3)n2)c1` [Example 3-8] had a melting point of 168 to 170 °C.
Next, `CCC(CC)c1ccc(COc2ccc(-c3csc(CN(CC(=O)O)Cc4ccccc4)n3)cc2)cc1` [Example 3-11]: 144 to 146 °C; `CC(C)Cc1ccc(COc2ccc(C(C)(C)C)cc2-c2csc(CN(CC(=O)O)Cc3ccccc3)n2)cc1` [Example 3-12]: 155 to 157 °C; `CCCC(CCC)c1ccc(COc2ccc(Cl)cc2-c2csc(CN(CC(=O)O)Cc3ccccc3)n2)cc1` [Example 3-13]: 130 to 131 °C.
Regarding `CCC(CC)c1ccc(COc2ccc(-c3csc(CN(CC(=O)O)Cc4ccc(C(F)(F)F)cc4)n3)cc2)cc1` [Example 3-16], the melting point is 136 to 138 °C.
The figure for `CCC(CC)c1ccc(COc2ccc(-c3csc(CN(CC(=O)O)Cc4ccc(Cl)cc4)n3)cc2)cc1` [Example 3-17] is 154 to 157 °C; for `CCC(CC)c1ccc(COc2ccc(-c3csc(CN(CC(=O)O)Cc4cc(C)cc(C)c4)n3)cc2)cc1` [Example 3-18] it is 114 to 119 °C; for `CCCC(CCC)c1ccc(COc2ccc(-c3csc(CN(CC(=O)O)Cc4ccccn4)n3)cc2)cc1` [Example 3-19] it is 155 to 156 °C.
In turn, `CCC(CC)c1ccc(COc2ccc(-c3csc(CN(CC(=O)O)Cc4ccccn4)n3)cc2)cc1` [Example 3-20] displayed a melting point of 156 to 157 °C.
The figure for `CCCC(CCC)c1ccc(COc2ccc(-c3csc(CN(CC(=O)O)C(=O)c4ccccc4)n3)cc2)cc1` [Example 3-22] is 141 to 144 °C; for `CCC(CC)c1ccc(COc2ccc(-c3csc(CN(CC(=O)O)C(=O)c4ccc(C)cc4)n3)cc2)cc1` [Example 3-23] it is 142 to 144 °C.
Turning to `CCCC(CCC)c1ccc(COc2ccc(-c3csc(CN(CC(=O)O)C(=O)c4ccc(OC)cc4)n3)cc2)cc1` [Example 3-24], the melting point was 99 to 101 °C.
Next, `CN(Cc1ccc(CC(C)(C)C)cc1)c1ccc(-c2csc(CN(CC(=O)O)Cc3ccccc3)n2)cc1` [Example 3-27]: 159 to 160 °C.
For `CN(C[C@H]1CC[C@H](c2ccc(C(C)(C)C)cc2)CC1)c1ccc(-c2csc(CN(CC(=O)O)Cc3ccccc3)n2)cc1` [Example 3-28], the melting point lay in the range of 192 to 195 °C.
Regarding `CN(CCc1ccc(CC(C)(C)C)cc1)c1ccc(-c2csc(CN(CC(=O)O)Cc3ccccc3)n2)cc1` [Example 3-31], the melting point is 133 to 134 °C.
Turning to `CN(Cc1ccc(C2CCC(F)CC2)cc1)c1ccc(-c2csc(CN(CC(=O)O)Cc3ccccc3)n2)cc1` (stereo not shown) [Example 3-33], the melting point lay within 146 to 147 °C.
For `CN(Cc1ccc(-c2ccccc2)cc1)c1ccc(-c2csc(CN(CC(=O)O)Cc3ccccc3)n2)cc1` [Example 3-37], the melting point lay within 167 to 170 °C.
The figure for `CC(C)Cc1ccc(CN(C)c2ccc(-c3csc(CN(CC(=O)O)Cc4ccccc4)n3)cc2)cc1` [Example 3-39] is 149 to 151 °C; for `CN(Cc1ccc(SCC(C)(C)C)cc1)c1ccc(-c2csc(CN(CC(=O)O)Cc3ccccc3)n2)cc1` [Example 3-41] it is 143 °C; for `CC(C)CCSc1ccc(CN(C)c2ccc(-c3csc(CN(CC(=O)O)Cc4ccccc4)n3)cc2)cc1` [Example 3-42] it is 122 °C.

For orientation: melting point means the temperature, or range, at which the solid turns liquid.
